In the NIST ThermoML archive (doi:10.1016/j.jct.2009.08.009):

Experiment: xn = mol fraction of the nth substance listed
Conditions: 101 kPa, Liquid; for viscosity: Capillary tube (Ostwald / Ubbelohde) method; for speed of sound: Sing-around technique in a fixed-path interferometer; for mass density: Vibrating tube method

CCOCCOCCO [3,6-dioxa-1-octanol] + CCCCCCO
Conditions | mass density [kg/m3] | speed of sound [m/s] | viscosity [mPa·s]
293.15 K, x1 = 0.0515 | 828.146 | 1322.4 | 4.442
293.15 K, x1 = 0.1039 | 837.651 | 1324.9 | 4.111
293.15 K, x1 = 0.1456 | 845.454 | 1327.5 | 3.932
293.15 K, x1 = 0.2078 | 857.041 | 1331.1 | 3.714
293.15 K, x1 = 0.2501 | 864.989 | 1334.2 | 3.614
293.15 K, x1 = 0.3127 | 876.967 | 1338.7 | 3.482
293.15 K, x1 = 0.3517 | 884.493 | 1342.1 | 3.423
293.15 K, x1 = 0.5241 | 918.471 | 1358.7 | 3.279
293.15 K, x1 = 0.6227 | 938.481 | 1370.5 | 3.308
293.15 K, x1 = 0.7217 | 959.157 | 1384.3 | 3.352
293.15 K, x1 = 0.8227 | 980.826 | 1400.4 | 3.384
293.15 K, x1 = 0.915 | 1000.91 | 1416.4 | 3.588
293.15 K, x1 = 1 | – | – | 3.626
298.15 K, x1 = 0.0515 | 824.518 | 1305.4 | 3.906
298.15 K, x1 = 0.1039 | 833.976 | 1308 | 3.655
298.15 K, x1 = 0.1456 | 841.738 | 1310.6 | 3.495
298.15 K, x1 = 0.2078 | 853.267 | 1314.3 | 3.352
298.15 K, x1 = 0.2501 | 861.179 | 1317.4 | 3.237
298.15 K, x1 = 0.3127 | 873.107 | 1322 | 3.121
298.15 K, x1 = 0.3517 | 880.591 | 1325.3 | 3.066
298.15 K, x1 = 0.5241 | 914.427 | 1341.9 | 2.951
298.15 K, x1 = 0.6227 | 934.36 | 1353.8 | 2.965
298.15 K, x1 = 0.7217 | 954.955 | 1367.5 | 3.009
298.15 K, x1 = 0.8227 | 976.55 | 1383.5 | 3.054
298.15 K, x1 = 0.915 | 996.56 | 1399.5 | 3.235
298.15 K, x1 = 1 | – | – | 3.278
303.15 K, x1 = 0.0515 | 820.874 | 1288.7 | 3.381
303.15 K, x1 = 0.1039 | 830.282 | 1291.3 | 3.154
303.15 K, x1 = 0.1456 | 838.004 | 1293.9 | 3.026
303.15 K, x1 = 0.2078 | 849.482 | 1297.6 | 2.879
303.15 K, x1 = 0.2501 | 857.352 | 1300.7 | 2.809
303.15 K, x1 = 0.3127 | 869.225 | 1305.3 | 2.726
303.15 K, x1 = 0.3517 | 876.678 | 1308.7 | 2.682
303.15 K, x1 = 0.5241 | 910.37 | 1325.3 | 2.584
303.15 K, x1 = 0.6227 | 930.226 | 1337.1 | 2.605
303.15 K, x1 = 0.7217 | 950.745 | 1350.8 | 2.647
303.15 K, x1 = 0.8227 | 972.261 | 1366.7 | 2.693
303.15 K, x1 = 0.915 | 992.202 | 1382.6 | 2.801
303.15 K, x1 = 1 | – | – | 2.862
308.15 K, x1 = 0.0515 | 817.198 | 1272.1 | 2.901
308.15 K, x1 = 0.1039 | 826.564 | 1274.7 | 2.72
308.15 K, x1 = 0.1456 | 834.246 | 1277.3 | 2.631
308.15 K, x1 = 0.2078 | 845.669 | 1280 | 2.503
308.15 K, x1 = 0.2501 | 853.504 | 1284.2 | 2.443
308.15 K, x1 = 0.3127 | 865.322 | 1288.8 | 2.374
308.15 K, x1 = 0.3517 | 872.742 | 1292.1 | 2.342
308.15 K, x1 = 0.5241 | 906.299 | 1308.8 | 2.266
308.15 K, x1 = 0.6227 | 926.073 | 1320.6 | 2.278
308.15 K, x1 = 0.7217 | 946.516 | 1334.2 | 2.297
308.15 K, x1 = 0.8227 | 967.953 | 1350 | 2.349
308.15 K, x1 = 0.915 | 987.826 | 1365.8 | 2.445
308.15 K, x1 = 1 | – | – | 2.507
